{"source": "patent US11224572B1", "about": "“Stable oral liquid composition of terazosin” (Novitium Pharma LLC, priority 2020, dated 2022)", "origin": "cited, not measured here", "key": {"[1]": {"system": "alpha-1 adrenoceptor"}, "[2]": {"conditions": "patients treated with terazosin"}, "[3]": {"system": "alpha-1 adrenoceptor", "conditions": "in animals"}}, "note": "Structures can show the parent of a compound that is named as a salt."}
{"smiles": "COc1cc2nc(N3CCN(C(=O)C4CCCO4)CC3)nc(N)c2cc1OC", "note": "(racemic) [terazosin, (RS)-Piperazine, 1-(4-amino-6,7-dimethoxy-2-quinazolinyl)-4-[(tetrahydro-2-furanyl)carbonyl]-, monohydrochloride]", "values": [{"measurement": "time within which blood pressure decreases following oral administration", "setting": "[1]", "value": "≤ 15", "unit": "min"}, {"measurement": "patients experiencing an increase in urinary flow and improvement in symptoms of BPH", "setting": "[2]", "value": "approximately 70%"}, {"measurement": "effect on blood pressure", "setting": "[3]", "value": "causes a decrease in blood pressure by decreasing total peripheral vascular resistance"}]}
